{"source": "patent US10555987B2", "about": "“GHRH agonists for the treatment of ischemic disorders” (UNIVERSITY OF MIAMI, priority 2012, dated 2020)", "key": {"GH release [1]": {"tested_on": "GH release", "assay": "GH releasing potency in vivo, subcutaneous administration (Example 14, Table 12)", "parameters": "species or system rat", "conditions": "s.c.", "method_in_brief": "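Potency is expressed relative to GHRH(1-29)NH2 and JI-38 (each = 1), via equivalent GHRH(1-29)NH2 dose read from a standard curve. Peptides in 5% mannitol given i.v. or s.c. to anaesthetised male Sprague-Dawley rats (200-250 g); serum GH measured by ELISA at selected times.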"}, "GH release [2]": {"tested_on": "GH release", "assay": "GH releasing potency in vivo, intravenous administration (Example 14, Table 13)", "parameters": "species or system rat", "conditions": "i.v.", "experimental": "Male Sprague-Dawley rats, weighing 200-250 g, were purchased from Charles River Laboratory (Wilmington, Mass.) and used for experiments. All animal procedures were approved by the Veterans Affairs Animal Care and Use Committee and were conducted in accordance with additional institutional guidelines as well. Briefly, groups of 5-6 animals were used in each experiment. The rats were anesthetized with 50 mg/kg of sodium pentobarbital (Nembutal, Lundbeck Inc., Deerfield, Ill.). Twenty min after inducing anesthesia, GHRH(1-29)NH2, JI-38, or new analogs were injected into the animals intravenously (i.v.) or subcutaneously (s.c.). The peptides were dissolved in 0.01 M acetic acid to get 1 μg/μl stock solution, and then diluted with 5% mannitol. Control rats received 5% mannitol only. Blood samples were collected from the jugular vein at selected times and were used for serum preparation. Concentrations of GH in rat sera were determined by ELISA. The relative potencies of tested peptides were calculated using GHRH(1-29)NH2 and JI-38 for comparison, whose potency was defined as 1. The equivalent dosage of GHRH(1-29)NH2 to reach the same level of serum growth hormone release after injection of the specific tested peptide was determined from a GHRH(1-29)NH2 standard curve using Origin 6.0 software. […] Serum GH was determined using the rat Growth Hormone ELISA kit (ALPCO Diagnostics, Mill Valley, Calif.) according to the manufacturer's instruction. Absorbance at 405 nm was measured by a Victor 3 Multi-label Counter (Perkin-Elmer, Waltham, Md.)."}, "GH release [3]": {"tested_on": "GH release", "assay": "In vivo endocrine activity, GH release after subcutaneous administration (Table 9)", "conditions": "rat, subcutaneous (s.c.) injection", "experimental": "Subcutaneous Administration. Adult male rats were used and anesthetized with pentobarbital (6 mg/100 g, b.w.), by i.p. injection. […] Blood samples were taken from the jugular vein 5, 15 and/or 30 minutes after the injection. The blood samples were centrifuged, plasma was removed and the GH level was measured byELISA. The results are summarized in terms of potency in Table 9."}, "GH release [4]": {"tested_on": "GH release", "assay": "In vivo endocrine activity, GH release after intravenous administration (Table 8)", "conditions": "rat, i.v. injection"}, "GHRH receptor [5]": {"target": "T1, GHRH receptor (Homo sapiens, UniProt Q02643)", "T1 sequence (Q02643 23-423)": "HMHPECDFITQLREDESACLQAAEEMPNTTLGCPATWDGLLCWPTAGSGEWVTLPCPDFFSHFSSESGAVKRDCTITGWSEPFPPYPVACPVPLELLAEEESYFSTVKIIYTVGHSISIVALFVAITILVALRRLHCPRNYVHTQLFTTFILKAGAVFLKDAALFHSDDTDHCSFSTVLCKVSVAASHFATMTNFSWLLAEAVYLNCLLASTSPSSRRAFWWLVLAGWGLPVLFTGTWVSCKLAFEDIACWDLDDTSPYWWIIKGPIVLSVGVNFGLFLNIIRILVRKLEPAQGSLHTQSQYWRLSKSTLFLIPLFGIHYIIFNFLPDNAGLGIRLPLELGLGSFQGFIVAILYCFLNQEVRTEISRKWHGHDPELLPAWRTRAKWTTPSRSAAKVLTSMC", "assay": "GHRH receptor binding, competition with 125I-labeled JV-1-42, human pituitary membrane homogenates (Table 5)", "parameters": "Normal human pituitaries were purchased from the National Hormone and Peptide Program; tissue National Hormone and Peptide Program (A.F. Parlow, Harbor-UCLA Medical Center, Torrance, Calif.); host or cells: normal human pituitary, membrane fraction", "experimental": "Normal human pituitaries were purchased from the National Hormone and Peptide Program (A.F. Parlow, Los Angeles, County Harbor-UCLA Medical Center, Torrance, Calif.). Briefly, in competitive binding analysis, ^125I-labeled JV-1-42 ([…]) was displaced by GHRH agonists at 10^−6 to 10^−12 M.\nThe final binding affinities were expressed as IC50 values and were calculated by using the LIGAND PC computerized curve-fitting program of Munson and Rodbard as modified by McPherson."}, "GHRH receptor [6]": {"target": "T1, GHRH receptor", "assay": "Receptor binding in vitro, 125I-labeled [His1,Nle27]-hGHRH(1-32)NH2, membrane receptors of human anterior pituitary cells (Table 14)", "quoted_text": "Normal human pituitary was purchased from the National Hormone and Peptide Program (UCLA Medical Center, Torrance, Calif.)."}, "GHRH receptor [7]": {"target": "T1, GHRH receptor", "assay": "GHRH receptor binding, competition with 125I-labeled JV-1-42, human pituitary membrane homogenates (Table 7)", "parameters": "Normal human pituitaries were purchased from the National Hormone and Peptide Program; tissue National Hormone and Peptide Program (A.F. Parlow, Harbor-UCLA Medical Center, Torrance, Calif.); host or cells: normal human pituitary, membrane fraction", "conditions": "JI-38 = 1, Table 7", "text": "Normal human pituitaries were purchased from the National Hormone and Peptide Program (A.F. Parlow, Los Angeles, County Harbor-UCLA Medical Center, Torrance, Calif.)."}}, "note": "Non-standard residues stand in square brackets, D forms with d. Residues, ends and D or L forms follow the SMILES beside them. *: point of attachment. Desaminotyrosyl = O=C(CCc1ccc(O)cc1)*; Nle = CCCC[C@H](N)C(=O)O; Orn = NCCC[C@H](N)C(=O)O; Abu = CC[C@H](N)C(=O)O; GABA = NCCCC(=O)O", "data": [{"smiles": "CCCC[C@H](NC(=O)[C@@H](NC(=O)[C@H](CC(=O)O)NC(=O)[C@H](CCC(N)=O)NC(=O)[C@H](CC(C)C)NC(=O)[C@H](CC(C)C)NC(=O)[C@H](CCCN)NC(=O)[C@H](CCCNC(=N)N)NC(=O)[C@H](C)NC(=O)[C@H](CO)NC(=O)[C@H](CC(C)C)NC(=O)[C@H](CCC(N)=O)NC(=O)[C@H](CC)NC(=O)[C@H](CC(C)C)NC(=O)[C@@H](NC(=O)[C@H](CCCN)NC(=O)[C@H](CCCNC(=N)N)NC(=O)[C@H](Cc1ccc(O)cc1)NC(=O)[C@H](CO)NC(=O)[C@H](CC(N)=O)NC(=O)[C@@H](NC(=O)[C@H](Cc1ccccc1)NC(=O)[C@@H](NC(=O)[C@H](C)NC(=O)[C@H](CC(=O)O)NC(=O)[C@@H](C)NC(=O)CCc1ccc(O)cc1)[C@@H](C)CC)[C@@H](C)O)C(C)C)[C@@H](C)CC)C(=O)N[C@@H](CO)C(=O)N[C@@H](CCCNC(=N)N)C(=O)N[C@@H](CCC(N)=O)C(=O)NCCCC(N)=O", "note": "[Peptide P-29702, [Dat^1, D-Ala^2, Orn^12, Abu^15, Orn^21, Nle^27, Gln-Gab^30]hGHRH(1-30)NH2] (Desaminotyrosyl-[dA]DAIFTNSYR[Orn]VL[Abu]QLSAR[Orn]LLQDI[Nle]SRQ[GABA]-NH2)", "values": [{"measurement": "Serum GH level at selected time after injection (ng/ml), 0 min", "setting": "GH release [1]; male rats, dose 3 μg/kg, 0 min, mean ± SEM", "value": "43.7 ± 5^ ng/ml"}, {"measurement": "Serum GH level at selected time after injection (ng/ml), 15 min", "setting": "GH release [1]; male rats, dose 3 μg/kg, 15 min, mean ± SEM", "value": "103.7 ± 23.1", "unit": "ng/mL"}, {"measurement": "Serum GH level at selected time after injection (ng/ml), 30 min", "setting": "GH release [1]; male rats, dose 3 μg/kg, 30 min, mean ± SEM", "value": "85 ± 27.8", "unit": "ng/mL"}, {"measurement": "Relative potency compared to GHRH(1-29), 15 min", "setting": "GH release [1]; 15 min", "value": 22.4}, {"measurement": "Relative potency compared to JI-38, 15 min", "setting": "GH release [1]; 15 min", "value": 0.35}, {"measurement": "Relative potency compared to GHRH(1-29), 30 min", "setting": "GH release [1]; 30 min", "value": 53.5}, {"measurement": "Relative potency compared to JI-38, 30 min", "setting": "GH release [1]; 30 min", "value": 0.48}, {"measurement": "Relative potency, 5 min", "setting": "GH release [2]; 5 min, JI-38 = 1", "value": 1.07}, {"measurement": "Relative potency, 15 min", "setting": "GH release [2]; 15 min, JI-38 = 1", "value": 1.38}, {"measurement": "Serum GH level at selected time after injection (ng/ml), 0 min", "setting": "GH release [2]; dose 1 μg/kg, 0 min, mean ± SEM", "value": "47.7 ± 3.4", "unit": "ng/mL"}, {"measurement": "Serum GH level at selected time after injection (ng/ml), 5 min", "setting": "GH release [2]; dose 1 μg/kg, 5 min, mean ± SEM", "value": "578 ± 87.7", "unit": "ng/mL"}, {"measurement": "Serum GH level at selected time after injection (ng/ml), 15 min", "setting": "GH release [2]; dose 1 μg/kg, 15 min, mean ± SEM", "value": "273 ± 40.8", "unit": "ng/mL"}, {"measurement": "GH releasing potency relative to JI-38 (=1)", "setting": "GH release [3]; 15 min after", "value": 0.53}, {"measurement": "GH releasing potency relative to JI-38 (=1)", "setting": "GH release [3]; 30 min after", "value": 0.73}, {"measurement": "GH releasing potency in vivo relative to JI-38 (=1)", "setting": "GH release [4]; 5 min after", "value": 0.98}, {"measurement": "GH releasing potency in vivo relative to JI-38 (=1)", "setting": "GH release [4]; 15 min after", "value": 0.99}, {"measurement": "GH releasing potency in vivo relative to JI-38 (=1)", "setting": "GH release [4]; 30 min after", "value": 1.22}, {"measurement": "Relative affinity (Binding potency) vs GHRH", "setting": "GHRH receptor [5]; GHRH(1-29) = 1, Table 5", "value": 81.2}, {"measurement": "Relative affinity (Binding potency) vs JI-38", "setting": "GHRH receptor [5]; JI-38 = 1, Table 5", "value": 34.2}, {"measurement": "Relative affinity (Binding potency) compared to JI-38", "setting": "GHRH receptor [6]; JI-38 = 1", "value": 0.83}, {"measurement": "Relative affinity (Binding potency) compared to hGHRH(1-29)", "setting": "GHRH receptor [6]; hGHRH(1-29)NH2 = 1", "value": 2.31}, {"measurement": "Relative affinity (Binding potency) vs JI-38", "setting": "GHRH receptor [7]", "value": 5.06}]}]}
